Laboratory results taken from ChEMBL document CHEMBL1154471, “Lanostane-type triterpenoids from the sclerotia of Inonotus obliquus possessing anti-tumor promoting activity” (Eur J Med Chem, 2008).

Key:
Mus musculus [1] = experiment: Inhibition of DMBA-induced/TPA-promoted carcinogenesis in mouse assessed as number of mouse bearing papillomas at 85 nmol administered twice weekly after 1 week of initiation for 11 weeks; type: functional; set-up: scale not given: the % may be the effect or the level left
Mus musculus [2] = experiment: Inhibition of DMBA-induced/TPA-promoted carcinogenesis in mouse assessed as number of mouse bearing papillomas at 85 nmol administered twice weekly after 1 week of initiation for 20 weeks; type: functional; set-up: scale not given: the % may be the effect or the level left
Raji [3] = experiment: Inhibition of TPA-induced EBV-early antigen activation in human Raji cells assessed as EA activation at 1000 molar ratio after 48 hrs relative to TPA; type: cell-based; set-up: scale not given: the % may be the effect or the level left; conditions: human gammaherpesvirus 4
Raji [4] = experiment: Inhibition of TPA-induced EBV-early antigen activation in human Raji cells assessed as EA activation at 500 molar ratio after 48 hrs relative to TPA; type: cell-based; set-up: scale not given: the % may be the effect or the level left; conditions: human gammaherpesvirus 4
Raji [5] = experiment: Inhibition of TPA-induced EBV-early antigen activation in human Raji cells assessed as EA activation at 100 molar ratio […] relative to TPA; type: cell-based; set-up: scale not given: the % may be the effect or the level left; conditions: human gammaherpesvirus 4
Raji [6] = experiment: Inhibition of TPA-induced EBV-early antigen activation in human Raji cells assessed as EA activation at 10 molar ratio […] relative to TPA; type: cell-based; set-up: scale not given: the % may be the effect or the level left; conditions: human gammaherpesvirus 4
[7] = Inhibition of TPA-induced EBV-early antigen activation in human Raji cells assessed as EA activation; type: cell-based, human gammaherpesvirus 4
[8] = Cytotoxicity against human Raji cells assessed as cell viability at 1000 molar ratio by trypan blue staining relative to control; type: cell-based; conditions: read-out: Activity
Mus musculus [9] = experiment: Inhibition of DMBA-induced/TPA-promoted carcinogenesis in mouse assessed as number of skin papillomas per mouse at 85 nmol administered twice weekly after 1 week of initiation for 11 weeks; type: functional
Mus musculus [10] = experiment: Inhibition of DMBA-induced/TPA-promoted carcinogenesis in mouse assessed as number of skin papillomas per mouse at 85 nmol administered twice weekly after 1 week of initiation for 20 weeks; type: functional

`CC(C)=CCC[C@@H](C=O)[C@H]1CC[C@@]2(C)C3=C(CC[C@]12C)[C@@]1(C)CC[C@H](O)C(C)(C)[C@@H]1CC3` showed an Activity (Mus musculus [1]) of 33.3%, an Activity (Mus musculus [2]) of 73.3% and an Activity (Raji [3]) of 0%. It also gave an Activity (Raji [4]) of 35.1%, an Activity (Raji [5]) of 64% and an Activity (Raji [6]) of 90.4%. It also gave an IC50 [7] of 232 molar ratio, a viability at 1000 molar ratio [8] of 70% and an Activity (Mus musculus [9]) of 1.2. It also gave an Activity (Mus musculus [10]) of 3.8.
Compound `CC1(C)CC[C@]2(C(=O)O)CC[C@]3(C)C(=CC[C@@H]4[C@@]5(C)CC[C@H](O)C(C)(C)[C@@H]5CC[C@]43C)[C@@H]2C1` [OLEANOLIC_ACID] has an Activity (Raji [3]) of 12.7%, an Activity (Raji [4]) of 30% and an Activity (Raji [5]) of 80%. It also gave an Activity (Raji [6]) of 100% and an IC50 [7] of 389 molar ratio.
In the case of `C[C@H]([C@H](O)/C=C/C(C)(C)O)[C@H]1CC[C@@]2(C)C3=C(CC[C@]12C)[C@@]1(C)CC[C@H](O)C(C)(C)[C@@H]1CC3`, the Activity (Raji [3]) is reported as 0%, the Activity (Raji [4]) is reported as 26.9% and the Activity (Raji [5]) is reported as 69.8%. The Activity (Raji [6]) was 89.2%, the IC50 [7] was 231 molar ratio and the viability at 1000 molar ratio [8] was 70%.
With `CC(C)=CCC[C@@H](CO)[C@H]1CC[C@@]2(C)C3=C(CC[C@]12C)[C@@]1(C)CC[C@H](O)C(C)(C)[C@@H]1CC3` the Activity (Raji [3]) was 10.9%, the Activity (Raji [4]) was 47.1% and the Activity (Raji [5]) was 77.5%. The Activity (Raji [6]) was 100%, the IC50 [7] was 392 molar ratio and the viability at 1000 molar ratio [8] was 70%.
Work on `C[C@H]([C@H](O)/C=C/C(C)(C)O)[C@H]1CC[C@@]2(C)C3=CC[C@H]4C(C)(C)[C@@H](O)CC[C@]4(C)C3=CC[C@]12C` yielded an Activity (Raji [3]) of 0%, an Activity (Raji [4]) of 25.1% and an Activity (Raji [5]) of 67.3%. For the same compound, the Activity (Raji [6]) was 88.2%, the IC50 [7] was 228 molar ratio and the viability at 1000 molar ratio [8] was 70%.
